From patent US20020137736A1, “Novel compounds” (priority 1999, published 2002)

melting point: 138 to 140 °C
SMILES: CC(C)Oc1ccc(NC(=N)c2cccs2)cc1CN1CCCC1 [Example 21, N-[4-Isopropoxy-3-(1-pyrrolidinylmethyl)phenyl]-2-thiophenecarboximidamide]
